Data on 4 compounds can be found in US10617681B2, “1-arylalkyl-4-acylaminopiperidine compounds” (ARIZONA BOARD OF REGENTS ON BEHALF OF THE UNIVERSITY OF …, priority 2014, dated 2020).

Broadly, the EC50 is the concentration giving half of the maximal effect. What is called Kb is the equilibrium dissociation constant of an antagonist, usually derived from a functional assay. Broadly, the efflux ratio is a quotient of directional permeabilities that is used to spot active efflux. The IC50 is the midpoint of a concentration-inhibition curve. The term inhibition denotes the share of the control response that was lost under treatment.

Molecules are shown by their SMILES.

Series [1] concerns the target T1, α2B(h) (Homo sapiens, UniProt P18089).
T1 sequence (P18089 1-450): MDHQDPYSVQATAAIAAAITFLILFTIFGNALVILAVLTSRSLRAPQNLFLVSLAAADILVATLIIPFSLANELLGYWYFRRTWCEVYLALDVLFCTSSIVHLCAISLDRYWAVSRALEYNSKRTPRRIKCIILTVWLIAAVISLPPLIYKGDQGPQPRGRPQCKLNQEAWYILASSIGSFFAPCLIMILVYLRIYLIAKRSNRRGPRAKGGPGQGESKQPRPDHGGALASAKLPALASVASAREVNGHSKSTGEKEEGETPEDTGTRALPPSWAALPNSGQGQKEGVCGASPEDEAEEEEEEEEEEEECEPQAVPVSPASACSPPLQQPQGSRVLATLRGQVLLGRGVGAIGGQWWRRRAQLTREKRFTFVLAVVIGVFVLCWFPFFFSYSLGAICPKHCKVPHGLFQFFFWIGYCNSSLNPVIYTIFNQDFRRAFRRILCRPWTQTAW
The series is described as follows: Cellular functional assay, agonist effect, α2B. It counts as cell-based.

Series [2] addresses T2, κ (KOP) (Rattus norvegicus, UniProt P34975). The series is described as follows: Cellular functional assay, antagonist effect, κ (KOP). It counts as cell-based.
In the next series the test system is P-gp. The series is described as follows: MDCK permeability assay. The following applies: dog, MDCK.
The next series relates to MDCK. The series is described as follows: MDCK permeability assay.
The target of a further series is CYP3A4 (Homo sapiens, UniProt P08684). Description: CYP inhibition, CYP3A4. The following applies: with either substrate.
CYP3A4, sequence (P08684 whole entry): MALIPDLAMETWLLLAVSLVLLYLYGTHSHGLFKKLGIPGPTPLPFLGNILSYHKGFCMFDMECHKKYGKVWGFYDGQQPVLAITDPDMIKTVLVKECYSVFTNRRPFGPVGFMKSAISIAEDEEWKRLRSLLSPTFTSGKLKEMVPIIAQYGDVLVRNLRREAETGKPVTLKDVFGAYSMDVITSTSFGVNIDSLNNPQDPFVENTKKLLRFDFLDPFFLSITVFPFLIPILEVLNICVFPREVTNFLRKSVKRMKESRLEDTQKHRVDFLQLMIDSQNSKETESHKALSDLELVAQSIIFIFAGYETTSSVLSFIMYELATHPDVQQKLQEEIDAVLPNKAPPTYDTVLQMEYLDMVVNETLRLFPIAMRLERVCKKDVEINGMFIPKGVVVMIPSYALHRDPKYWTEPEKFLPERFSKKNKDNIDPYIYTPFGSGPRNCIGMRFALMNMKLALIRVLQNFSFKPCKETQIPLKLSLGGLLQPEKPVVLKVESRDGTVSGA
Series [3] in a line: In vitro metabolic disposition in mouse microsomes. The format is in vitro ADME. The following applies: mouse pooled liver microsomes, 0-45 minutes. As for the experimental part: (§1) Compound HCV-3 also was subjected to in vitro metabolic disposition in mouse, rat, monkey and human microsomes. The test compound was incubated with pooled liver microsomes, since […] stability in liver microsomes can be predictive of drug stability in vivo. Aliquots were taken at 0, 5, 15, 30 and 45 minutes and quenched immediately. The samples were extracted and analyzed by LC-MS/MS.

For the next series, the target named is CYP2D6 (Homo sapiens, UniProt P10635). Description: CYP inhibition, CYP2D6.
CYP2D6, sequence (P10635 whole entry): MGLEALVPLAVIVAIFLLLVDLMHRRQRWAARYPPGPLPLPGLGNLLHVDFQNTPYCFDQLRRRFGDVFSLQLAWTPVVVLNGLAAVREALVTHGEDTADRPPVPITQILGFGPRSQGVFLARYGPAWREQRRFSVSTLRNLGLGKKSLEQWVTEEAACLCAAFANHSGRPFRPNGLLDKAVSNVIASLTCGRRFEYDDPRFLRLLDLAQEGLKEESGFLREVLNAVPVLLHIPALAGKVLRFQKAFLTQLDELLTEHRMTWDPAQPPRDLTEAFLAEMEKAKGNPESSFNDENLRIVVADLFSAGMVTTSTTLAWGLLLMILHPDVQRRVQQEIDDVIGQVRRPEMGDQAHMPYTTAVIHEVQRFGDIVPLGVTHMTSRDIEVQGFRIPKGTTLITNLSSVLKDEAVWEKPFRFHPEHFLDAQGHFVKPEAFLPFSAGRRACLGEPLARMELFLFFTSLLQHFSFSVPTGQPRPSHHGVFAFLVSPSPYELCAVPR
In the next series the target is hERG (Homo sapiens, UniProt Q12809). Description: hERG inhibition. It counts as cell-based. As for the experimental part: Compound HCV-3 also was tested for hERG inhibition. Over the concentration range tested (up to 25 micromolar) no dose-response was obtained. […] The control compounds behaved as expected in the assay.
hERG, sequence (Q12809 whole entry): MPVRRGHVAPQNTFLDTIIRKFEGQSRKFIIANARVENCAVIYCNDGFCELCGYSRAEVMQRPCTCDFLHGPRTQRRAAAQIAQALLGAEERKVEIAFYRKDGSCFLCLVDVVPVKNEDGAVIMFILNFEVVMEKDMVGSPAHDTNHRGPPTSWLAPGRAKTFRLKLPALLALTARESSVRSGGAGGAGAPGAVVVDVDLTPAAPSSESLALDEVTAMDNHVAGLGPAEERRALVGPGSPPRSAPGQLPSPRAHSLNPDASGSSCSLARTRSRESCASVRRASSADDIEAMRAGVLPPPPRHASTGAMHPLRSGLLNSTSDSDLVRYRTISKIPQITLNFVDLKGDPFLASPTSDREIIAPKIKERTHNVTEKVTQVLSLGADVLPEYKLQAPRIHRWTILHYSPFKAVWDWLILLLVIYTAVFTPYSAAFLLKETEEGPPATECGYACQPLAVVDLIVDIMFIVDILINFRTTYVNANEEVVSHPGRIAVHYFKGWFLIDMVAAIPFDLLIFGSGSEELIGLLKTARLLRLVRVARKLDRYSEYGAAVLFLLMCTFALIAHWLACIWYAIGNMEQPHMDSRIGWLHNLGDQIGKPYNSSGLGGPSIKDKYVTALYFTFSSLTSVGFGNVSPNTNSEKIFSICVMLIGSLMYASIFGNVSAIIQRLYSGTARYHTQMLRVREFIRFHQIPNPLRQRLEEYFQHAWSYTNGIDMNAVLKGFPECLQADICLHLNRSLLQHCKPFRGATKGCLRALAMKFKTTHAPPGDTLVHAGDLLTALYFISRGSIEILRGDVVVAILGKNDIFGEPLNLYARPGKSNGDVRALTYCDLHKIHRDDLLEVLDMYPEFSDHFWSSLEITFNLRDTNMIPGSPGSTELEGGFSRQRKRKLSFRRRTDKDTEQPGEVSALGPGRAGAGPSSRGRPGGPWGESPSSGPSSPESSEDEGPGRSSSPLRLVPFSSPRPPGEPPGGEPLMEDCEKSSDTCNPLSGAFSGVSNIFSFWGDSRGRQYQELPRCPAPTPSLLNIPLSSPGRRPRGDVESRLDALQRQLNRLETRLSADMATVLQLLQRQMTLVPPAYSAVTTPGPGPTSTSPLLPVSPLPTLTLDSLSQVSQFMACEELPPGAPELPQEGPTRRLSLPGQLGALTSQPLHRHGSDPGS
The next series concerns the target T3, CYP2C8 (Homo sapiens, UniProt P10632).
T3 sequence (P10632 1-490): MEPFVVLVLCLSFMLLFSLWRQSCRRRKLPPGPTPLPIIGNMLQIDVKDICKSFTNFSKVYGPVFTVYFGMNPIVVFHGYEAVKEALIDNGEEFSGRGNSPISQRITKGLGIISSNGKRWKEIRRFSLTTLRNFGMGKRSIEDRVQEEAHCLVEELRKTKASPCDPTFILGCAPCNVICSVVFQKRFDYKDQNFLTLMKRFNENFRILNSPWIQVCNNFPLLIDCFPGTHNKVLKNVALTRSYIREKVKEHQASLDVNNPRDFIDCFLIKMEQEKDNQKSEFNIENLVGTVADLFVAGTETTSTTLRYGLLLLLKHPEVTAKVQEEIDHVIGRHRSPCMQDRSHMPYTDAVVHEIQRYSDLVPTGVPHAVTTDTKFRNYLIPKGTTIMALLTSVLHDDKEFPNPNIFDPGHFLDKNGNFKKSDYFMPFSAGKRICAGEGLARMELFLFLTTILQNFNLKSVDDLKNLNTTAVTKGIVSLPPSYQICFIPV
Description: CYP inhibition, CYP2C8.

Another series deals with T4, CYP1A2 (Homo sapiens, UniProt P05177).
T4 sequence (P05177 1-516): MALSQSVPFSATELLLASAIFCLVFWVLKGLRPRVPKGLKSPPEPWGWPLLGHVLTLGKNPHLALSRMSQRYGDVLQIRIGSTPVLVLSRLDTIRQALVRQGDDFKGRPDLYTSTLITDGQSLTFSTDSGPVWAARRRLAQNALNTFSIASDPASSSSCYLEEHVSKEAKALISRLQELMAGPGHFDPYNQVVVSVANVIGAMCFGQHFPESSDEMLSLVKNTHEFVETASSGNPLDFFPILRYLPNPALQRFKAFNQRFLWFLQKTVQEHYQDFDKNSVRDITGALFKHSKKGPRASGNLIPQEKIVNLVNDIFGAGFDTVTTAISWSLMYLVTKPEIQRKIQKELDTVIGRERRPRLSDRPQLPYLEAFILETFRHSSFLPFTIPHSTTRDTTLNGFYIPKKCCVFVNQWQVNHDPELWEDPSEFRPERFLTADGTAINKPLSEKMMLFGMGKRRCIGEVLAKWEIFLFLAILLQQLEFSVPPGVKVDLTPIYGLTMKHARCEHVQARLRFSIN
Description: CYP inhibition, CYP1A2.

Series [4] is described as follows: In vitro metabolic disposition in monkey microsomes. The format is in vitro ADME. The following applies: monkey pooled liver microsomes, 0-45 minutes. As for the experimental part:
as §1

Series [5] is described as follows: In vitro metabolic disposition in human microsomes. The format is in vitro ADME. The settings on record: human pooled liver microsomes, 0-45 minutes. As for the experimental part: as §1
The target in the next series is CYP2C19 (Homo sapiens, UniProt P33261). Description: CYP inhibition, CYP2C19.
CYP2C19, sequence (P33261 whole entry): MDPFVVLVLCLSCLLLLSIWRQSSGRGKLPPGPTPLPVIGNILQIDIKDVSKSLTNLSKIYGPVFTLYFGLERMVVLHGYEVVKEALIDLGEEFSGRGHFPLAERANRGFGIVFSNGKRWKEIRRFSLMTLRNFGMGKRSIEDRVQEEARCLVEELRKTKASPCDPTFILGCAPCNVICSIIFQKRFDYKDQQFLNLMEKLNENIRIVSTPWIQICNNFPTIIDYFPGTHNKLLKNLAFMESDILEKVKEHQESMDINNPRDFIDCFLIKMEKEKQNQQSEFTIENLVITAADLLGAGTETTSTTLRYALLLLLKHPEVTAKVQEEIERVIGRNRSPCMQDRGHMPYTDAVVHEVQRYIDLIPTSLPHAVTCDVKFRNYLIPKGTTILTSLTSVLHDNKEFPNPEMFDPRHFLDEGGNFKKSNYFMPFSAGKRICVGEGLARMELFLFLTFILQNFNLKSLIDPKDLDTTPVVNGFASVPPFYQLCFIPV
The next series relates to TA98. The series is described as follows: AMES testing, strain TA98. The format is cell-based. The following applies: TA98, up to 1 mg/mL, absence and presence of S9 metabolic activation. Here is the method:
(§2) Compound HCV-3 was negative for genotoxicity against both strains used in this assay (TA98 and TA 100) up to a maximum tested concentration of 1 mg/mL, in both the absence and presence of S9 metabolic activation. The assay controls behaved as expected.

In series [6] the target is T2, κ (KOP). The series is described as follows: Cellular functional assay, agonist effect, κ (KOP). The format is cell-based. The following applies: agonist mode.
Series [7] has as its target T5, μ (MOP) (Homo sapiens, UniProt P35372). Description: Cellular functional assay, agonist effect, μ (MOP). The format is cell-based. The following applies: agonist mode.
Series [8] concerns the target T1, α2B(h). The series is described as follows: Cellular functional assay, antagonist effect, α2B. The format is cell-based. The following applies: antagonist mode.
A short description of series [9]: In vitro metabolic disposition in rat microsomes. It counts as in vitro ADME. The settings on record: rat pooled liver microsomes, 0-45 minutes. Here is the method:
as §1

The target of series [10] is T5, μ (MOP). Description: Cellular functional assay, antagonist effect, μ (MOP). The format is cell-based. The following applies: antagonist mode.
Another series concerns the target T6, CYP2B6 (Homo sapiens, UniProt P20813).
T6 sequence (P20813 1-491): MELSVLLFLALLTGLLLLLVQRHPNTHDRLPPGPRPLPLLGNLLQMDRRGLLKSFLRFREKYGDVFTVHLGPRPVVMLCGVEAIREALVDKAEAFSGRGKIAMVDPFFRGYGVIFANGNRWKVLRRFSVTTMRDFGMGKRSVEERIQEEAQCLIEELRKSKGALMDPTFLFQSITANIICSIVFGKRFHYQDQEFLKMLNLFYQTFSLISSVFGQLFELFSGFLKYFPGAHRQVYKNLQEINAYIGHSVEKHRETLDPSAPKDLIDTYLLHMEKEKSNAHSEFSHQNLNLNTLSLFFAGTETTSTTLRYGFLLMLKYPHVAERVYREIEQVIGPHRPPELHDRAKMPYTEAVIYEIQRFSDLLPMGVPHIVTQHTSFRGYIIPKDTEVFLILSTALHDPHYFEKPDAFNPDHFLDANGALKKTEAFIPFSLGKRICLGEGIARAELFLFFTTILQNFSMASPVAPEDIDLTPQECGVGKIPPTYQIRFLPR
Description: CYP inhibition, CYP2B6.

For another series, the target named is CYP2C9 (Homo sapiens, UniProt P11712). Description: CYP inhibition, CYP2C9.
CYP2C9, sequence (P11712 whole entry): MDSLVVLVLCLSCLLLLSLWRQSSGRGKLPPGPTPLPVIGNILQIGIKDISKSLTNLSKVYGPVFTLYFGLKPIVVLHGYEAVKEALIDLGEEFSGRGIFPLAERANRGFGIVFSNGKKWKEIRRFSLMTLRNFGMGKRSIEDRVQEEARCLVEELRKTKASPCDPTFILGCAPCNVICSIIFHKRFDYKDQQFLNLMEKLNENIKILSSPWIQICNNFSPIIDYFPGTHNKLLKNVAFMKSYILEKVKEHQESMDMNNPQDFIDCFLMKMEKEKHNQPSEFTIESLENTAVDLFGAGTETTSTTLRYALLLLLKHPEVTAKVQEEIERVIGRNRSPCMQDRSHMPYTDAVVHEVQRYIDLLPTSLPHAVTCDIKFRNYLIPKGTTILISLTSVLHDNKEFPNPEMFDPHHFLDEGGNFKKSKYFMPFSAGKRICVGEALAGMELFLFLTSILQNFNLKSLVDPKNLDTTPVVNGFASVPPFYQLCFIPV
The subject of another series is TA 100. Description: AMES testing, strain TA 100. It counts as cell-based. The settings on record: TA 100, up to 1 mg/mL, absence and presence of S9 metabolic activation. As for the experimental part:
as §2

T5 sequence (P35372 whole entry): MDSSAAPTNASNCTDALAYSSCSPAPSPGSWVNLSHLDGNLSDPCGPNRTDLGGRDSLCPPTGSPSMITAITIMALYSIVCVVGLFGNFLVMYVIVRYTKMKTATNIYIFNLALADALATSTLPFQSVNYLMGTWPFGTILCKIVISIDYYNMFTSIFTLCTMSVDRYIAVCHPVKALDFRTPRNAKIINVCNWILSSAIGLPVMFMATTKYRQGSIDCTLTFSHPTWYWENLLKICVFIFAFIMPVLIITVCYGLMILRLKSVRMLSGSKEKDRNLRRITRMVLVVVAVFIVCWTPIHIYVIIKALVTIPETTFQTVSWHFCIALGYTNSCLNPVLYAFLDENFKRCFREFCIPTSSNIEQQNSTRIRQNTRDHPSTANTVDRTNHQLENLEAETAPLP
T2 sequence (P34975 whole entry): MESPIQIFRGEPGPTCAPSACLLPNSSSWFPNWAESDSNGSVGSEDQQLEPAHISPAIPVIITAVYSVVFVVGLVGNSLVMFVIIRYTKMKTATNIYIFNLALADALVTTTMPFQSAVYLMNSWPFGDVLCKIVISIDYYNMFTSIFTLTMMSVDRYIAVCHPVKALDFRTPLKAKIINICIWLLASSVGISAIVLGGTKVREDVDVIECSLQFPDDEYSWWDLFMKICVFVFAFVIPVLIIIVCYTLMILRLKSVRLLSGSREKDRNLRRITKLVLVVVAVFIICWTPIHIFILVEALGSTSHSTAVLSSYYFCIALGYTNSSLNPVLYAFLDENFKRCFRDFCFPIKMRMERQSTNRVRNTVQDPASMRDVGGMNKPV

With `Cc1cccc([C@H](C)c2c[nH]cn2)c1C` [dexmedetc, reference compound], the EC50 at α2B(h) [1] (reference agonist, read-out: Reference EC50 Ref) was 13 nM.

`Oc1ccc2c3c1O[C@H]1c4[nH]c5c(c4C[C@@]4(O)[C@@H](C2)N(CC2CC2)CC[C@]314)C[C@@]1(O)[C@H]2Cc3ccc(O)c4c3[C@@]1(CCN2CC1CC1)[C@H]5O4` [nor-BNI, reference compound]: on κ (KOP) [2] (reference antagonist, read-out: Reference Kb Ref), the Kb came out at 0.072 nM.

For the compound `CCC(=O)NC1CCN(CCc2ccccc2)CC1` [HCV-3, N-(1-phenethylpiperidin-4-yl)propionamide], the efflux ratio in the series with P-gp stood at 1.48. Besides, the permeability result in the series on MDCK (MDCK assay) was “highly permeable”. In addition, the CYP3A4 inhibition result at CYP3A4 is “No inhibition”. Moreover, the clearance result in series [3] was “low clearance”; in series [4], “low clearance”; in [5], “low clearance”; in series [9], “moderate clearance”. Moreover, the “% of Control Agonist Response, 1st” value at α2B(h) [1] (agonist mode, 1.0E−05, first replicate) is given as 9.2%; on κ (KOP) [6] (1.0E−05, first replicate), −10.3%; at μ (MOP) [7] (1.0E−05, first replicate), 28.1%. Further, the “% of Control Agonist Response, Mean” value on α2B(h) [1] (agonist mode, 1.0E−05, mean) was 7.1%; at κ (KOP) [6] (1.0E−05, mean), −4.2%; on μ (MOP) [7] (1.0E−05, mean) it was 33.5%. The “% of Control Agonist Response, 2nd” value on α2B(h) [1] (agonist mode, 1.0E−05, second replicate) was determined as 5.1%; at κ (KOP) [6] (1.0E−05, second replicate), 1.8%; on μ (MOP) [7] (1.0E−05, second replicate), 38.9%. Further, the “% of Control Agonist Response” value is 7.1% on α2B(h) [1] (agonist mode, test concentration 1.0E−05); −4.2% on κ (KOP) [6] (test concentration 1.0E−05); 33.5% on μ (MOP) [7] (test concentration 1.0E−05). Moreover, on CYP2D6, the CYP2D6 inhibitor category entry is “moderate CYP2D6 inhibitor”. Further, the figures for the half-maximal inhibitory concentration (IC50) on CYP2D6 and against hERG (concentration range tested up to 25 micromolar) were 4200 nM and more than 25000 nM, respectively. Also, the hERG inhibition category result at hERG is “weak or no hERG inhibition”. The inhibition at 25 micromolar against hERG (human, at the top concentration of 25 micromolar) stood at 32.5%; at CYP2C19 it was 36.4%. For the same compound, at CYP2C8, the CYP2C8 inhibition result is listed as “No inhibition”. Further, on CYP1A2, the CYP1A2 inhibition result is “No inhibition”. Also, at CYP2C19, the CYP2C19 inhibitor category result is “weak CYP2C19 inhibitor”. Also, the genotoxicity result in the series with TA98 and with TA 100 was “negative” throughout. The “Agonist Response (% of Control), 1st” value on α2B(h) [8] (1.0E−05, first replicate) was 116.8 % of Control; on μ (MOP) [10] (1.0E−05, first replicate) it was 100.1 % of Control; on κ (KOP) [2] (antagonist mode, 1.0E−05, first replicate) it was 112.4 % of Control. In addition, the “Agonist Response (% of Control), Mean” value on α2B(h) [8] (1.0E−05, mean) is reported as 127.8 % of Control; on μ (MOP) [10] (1.0E−05, mean), 101.0 % of Control; at κ (KOP) [2] (antagonist mode, 1.0E−05, mean), 94.4 % of Control. For the same compound, the “Agonist Response (% of Control), 2nd” value is 138.7 % of Control on α2B(h) [8] (1.0E−05, second replicate); 101.8 % of Control at μ (MOP) [10] (1.0E−05, second replicate); 76.5 % of Control at κ (KOP) [2] (antagonist mode, 1.0E−05, second replicate). Moreover, the “% Inhibition of Control Agonist Response” value was −28% on α2B(h) [8] (test concentration 1.0E−05); −1% at μ (MOP) [10] (test concentration 1.0E−05); 6% on κ (KOP) [2] (antagonist mode, test concentration 1.0E−05). Moreover, the CYP2B6 inhibition result at CYP2B6 is reported as “No inhibition”. For the same compound, the CYP2C9 inhibition entry at CYP2C9 is listed as “No inhibition”.

As for `COc1cc2nc(N3CCN(C(=O)c4ccco4)CC3)nc(N)c2cc1OC` [prazosin, reference compound], the “efflux (control compound)” value was “showing efflux” in the series on MDCK (in the absence of Cyclosporin A) and “inhibited” in the series on MDCK (in the presence of Cyclosporin A).
